Measurements published in ChEMBL document CHEMBL1134194, “Anti-HIV activity of aromatic and heterocyclic thiazolyl thiourea compounds” (Bioorg Med Chem Lett, 2001).
Structures can show the parent of a compound that is named as a salt.

target: Human immunodeficiency virus type 1 reverse transcriptase (Human immunodeficiency virus 1, UniProt Q72547, K103N/Y181C); test: Inhibitory activity against non-nucleoside reverse transcriptase inhibitors (NNRTI) -resistant HIV-1 strain A17 variant with Y181C plus K103N mutations in RT (reverse transcriptase)

Point of comparison: `S=C(NCC12CC3CC(CC(C3)C1)C2)Nc1nccs1`, IC50 1.3 µM. Against it:
- S=C(NCCOc1ccccc1)Nc1nccs1 — higher, > 100 µM
- S=C(NCCc1cccs1)Nc1ccc(Br)cn1 — 2.5-fold higher, 3.3 µM
- S=C(NCCC1=CCCCC1)Nc1nccs1 — higher, > 100 µM
- CCC(NC(=S)Nc1nccs1)c1ccccc1 (stereo unspecified) — within 1.5-fold, 1.5 µM
- S=C(NCCCn1ccnc1)Nc1nccs1 — higher, > 100 µM
- Oc1ccc(CCNC(=S)Nc2ccc(Br)cn2)cc1 — higher, > 100 µM
- S=C(NCc1ccco1)Nc1nccs1 — 2.2-fold lower, 0.6 µM
- S=C(NCCc1c[nH]c2ccccc12)Nc1nccs1 — 2.8-fold higher, 3.7 µM
- Cc1ccc(CC/N=C(\S)Nc2nccs2)cc1 — higher, > 100 µM

system: Human immunodeficiency virus 1; test: Tested for the ability to inhibit the replication of HIV-1 strain HTLV IIIB in human peripheral blood mononuclear cells (PBMC); assay type: functional, organism-based

Point of comparison: `Oc1ccc(CCNC(=S)Nc2ccc(Br)cn2)cc1`, IC50 0.007 µM. Against it:
- S=C(NCCOc1ccccc1)Nc1nccs1 — lower, < 0.001 µM
- S=C(NCCc1cccs1)Nc1nccs1 — lower, < 0.001 µM
- Cc1ccnc2c1NC(=O)c1cccnc1N2C1CC1 [NEVIRAPINE] — 4.9-fold higher, 0.034 µM
- S=C(NCCCn1ccnc1)Nc1nccs1 — lower, < 0.001 µM
- CC(C)Nc1cccnc1N1CCN(C(=O)c2cc3cc(NS(C)(=O)=O)ccc3[nH]2)CC1 [DELAVIRDINE MESYLATE] — within 1.5-fold, 0.009 µM
- Oc1ccc(CC/N=C(\S)Nc2nccs2)cc1 — higher, > 100 µM
- S=C(NCc1ccco1)Nc1nccs1 — lower, < 0.001 µM
- S=C(NCCc1c[nH]c2ccccc12)Nc1nccs1 — lower, < 0.001 µM
- S=C(NCCN1CCCCC1)Nc1nccs1 — higher, > 100 µM
- S=C(NCC12CC3CC(CC(C3)C1)C2)Nc1nccs1 — lower, < 0.001 µM
- S=C(NCCc1ccccn1)Nc1nccs1 — 140-fold higher, 1 µM
- Cc1ccc(CC/N=C(\S)Nc2nccs2)cc1 — 10-fold higher, 0.07 µM

system: not listed separately; test: Cytotoxic concentration was evaluated against human peripheral blood mononuclear cells (PBMC); assay type: functional

Point of comparison: `S=C(NCC12CC3CC(CC(C3)C1)C2)Nc1nccs1`, CC50 40 µM. Against it:
- S=C(NCCOc1ccccc1)Nc1nccs1 — higher, > 100 µM
- S=C(NCCc1cccs1)Nc1nccs1 — 1.8-fold higher, 71 µM
- S=C(NCCc1cccs1)Nc1ccc(Br)cn1 — higher, > 100 µM
- S=C(NCCCn1ccnc1)Nc1nccs1 — within 1.5-fold, 35 µM
- Oc1ccc(CCNC(=S)Nc2ccc(Br)cn2)cc1 — higher, > 100 µM
- S=C(NCc1ccco1)Nc1nccs1 — higher, > 100 µM
- S=C(NCCc1c[nH]c2ccccc12)Nc1nccs1 — within 1.5-fold, 28 µM
- S=C(NCCc1ccccn1)Nc1nccs1 — 2.5-fold higher, 100 µM
- Cc1ccc(CC/N=C(\S)Nc2nccs2)cc1 — higher, > 100 µM

system: Human immunodeficiency virus 1; test: Selectivity index was determined; assay type: functional

With `S=C(NCCOc1ccccc1)Nc1nccs1` the Selectivity index was >100000.
With `S=C(NCc1ccco1)Nc1nccs1` the Selectivity index was >100000.

Point of comparison: `S=C(NCC12CC3CC(CC(C3)C1)C2)Nc1nccs1`, Selectivity index 40000. Against it:
- S=C(NCCc1cccs1)Nc1nccs1 — higher, 71000
- S=C(NCCCn1ccnc1)Nc1nccs1 — lower, 35000
- S=C(NCCc1c[nH]c2ccccc12)Nc1nccs1 — lower, 28000
- S=C(NCCc1ccccn1)Nc1nccs1 — lower, 100
- Cc1ccc(CC/N=C(\S)Nc2nccs2)cc1 — lower, 1429
